Data: patent publication US20080255244A1, “CaM Kinase II Inhibitor Improves Retinoic Acid Therapy and Inhibits the Proliferation of Myeloid Leukemia Cells” (Fred Hutchinson Cancer Research Center, priority 2007, published 2008)

Assays:
Format in all cases: cell-based, human
[1] = tested on: activated CaMKIIγ in U937 cells; test: Western blot of CaMKIIγ autophosphorylation in U937 cells
Experimental: (§1) FIG. 9. Terminal differentiation/apoptosis of myeloid leukemia cells is associated with decreased CaMKIIγ activation. (A) Lysates from the HL60, NB4 and U937 myeloid cell lines treated with ATRA (1 μM) for the indicated period of time were subjected to Western blots. (B) Lysates from the indicated myeloid cell lines treated for five days with the indicated concentration of ATRA were subjected to Western blots. (C) Lysates from HL60 cells treated with TPA (0.1 μM) for the indicated time were subjected to Western blots. (D) Lysates from NB4 cells treated with arsenic trioxide (1 uM) for the indicated time were subjected to Western blots.
(§2) Antibodies and Western blots. Protein extracts, immunoprecipitations and Western blots were performed as previously detailed (Si J, Collins S J. IL-3-induced enhancement of retinoic acid receptor activity is mediated through Stat5, which physically associates with retinoic acid receptors in an IL-3-dependent manner. Blood 100: 4401-9 (2002)). Antibodies against CaMKI, CaMKIIγ, CaMKIV, c-myc, Stat3, Stat5, calmodulin, as well as the phosphospecific CaMKII (T286, 287) and phosphospecific CaMKI (T177) antibodies were from Santa Cruz Biotechnology. […]

[2] = tested on: activated CaMKIIγ in KG1 cells; test: Western blot of CaMKIIγ autophosphorylation in KG1 cells; settings: five days ATRA
Experimental: as §1, §2

[3] = tested on: activated CaMKIIγ in THP1 cells; test: Western blot of CaMKIIγ autophosphorylation in THP1 cells; settings: five days ATRA
Experimental: as §1, §2

[4] = tested on: activated CaMKIIγ in HL60R cells; test: Western blot of CaMKIIγ autophosphorylation in HL60R cells; settings: five days ATRA
Experimental: as §1, §2

[5] = tested on: NB4 subclones that are unresponsive to ATRA; test: Differentiation of ATRA-unresponsive NB4 subclones
Excerpt: (§3) Pharmacological CaMK inhibitors trigger myeloid leukemia cell differentiation. Particularly compelling evidence for the physiological importance of the CaMKII—mediated regulation of RAR activity is our experimental observation that KN-62, a pharmacological inhibitor of the CaMKs, enhances both RAR transcriptional activity (FIG. 1B) and the differentiation of certain myeloid leukemia cell lines (FIG. 7). Acute myelogenous leukemia (AML) is a heterogenous disease, and successful therapy with RA has been generally confined to those leukemias harboring RARα chromosome translocations.

[6] = tested on: KCL-22 cells; test: Differentiation of KCL-22 cells; settings: preliminary studies; not shown
Excerpt: as §3

[7] = tested on: Kasumi cells; test: Differentiation of Kasumi cells; settings: preliminary studies; not shown
Excerpt: as §3

[8] = tested on: Stat3 transcriptional activity in K562 cells; test: Stat3 response element luciferase reporter in K562 cells; settings: 48 hours of culture
Experimental: FIG. 13. Stat3 is directly phosphorylated and activated by CaMKIIγ at Ser727. (A, i). Cell lysates from the indicated human leukemia cell lines were subjected to Western blots utilizing the indicated Stat3 antibodies. ii). Cell lysates from the same primary AML samples depicted in FIG. 1B were subjected to Western blots utilizing the indicated Stat3 antibodies. B). The IL-3 dependent TonB210.1 cells were deprived of IL-3 for 24 hours. The cells were then treated with the indicated compounds immediately prior to the addition of doxycycline. After an additional 24 hours cell lysates were harvested and subjected to Western blots with the indicated Stat3 antibodies. C). K562 cells were electroporated with a luciferase reporter driven by a Stat3 response element. The indicated concentrations of KN93 and the Stat 3 inhibitor, cucurbitacin I, were added and relative luciferase activity determined on cell lysates following 48 hours of culture. D, i) K562 cell lysates were immunoprecipitated with control IgG or a Stat3 antibody. […]
Transient transfections and luciferase assays. […] Stat3 transcriptional activity was determined in K562 cells transfected with the pSIE-tk-LUC luciferase reporter which harbors a Stat3 binding site ([…]). […]

[9] = tested on: THP1 cells; test: THP1 proliferation in liquid suspension culture
Experimental: (§4) FIG. 11. […] (A) K562 cells were seeded in liquid suspension culture at 5×10^4 cells/ml in the presence or absence of the indicated concentration of compounds, and cell counts were obtained at the indicated time. (B) The indicated myeloid leukemia cell lines were seeded in liquid suspension culture at 5×10^4 cells/ml in the presence or absence of KN93, and cell counts obtained at the indicated time. (C) K562 cells were electroporated with the LXSN expression vector harboring the kinase dead, Lys^43 mutated, truncated CaMKII construct (kdCaMKII) as well as with the control (empty) LXSN vector. The electroporated cells were diluted into 96 well plates in liquid suspension culture in the presence of G418 (1 mg/ml). Following eight days of culture the total number of discrete, actively proliferating G418 resistant colonies within individual wells was determined.
(§5) Cell lines. All leukemia cell lines are cultured at 37° in RPMI supplemented with 5% heat-inactivated fetal calf serum.

[10] = tested on: KG-1 cells; test: KG-1 proliferation in liquid suspension culture
Experimental: as §4, §5

[11] = tested on: K562 cells; test: K562 proliferation in liquid suspension culture (cell counts)

CC1=C(/C=C/C(C)=C/C=C/C(C)=C/C(=O)O)C(C)(C)CCC1 [ATRA, All-trans retinoic acid]
total CaMKIIγ level [1]: essentially unchanged | activated CaMKIIγ level ([1]; ATRA 1 μM): marked decrease | activated CaMKIIγ level [2]: did not exhibit any decrease | activated CaMKIIγ level [3]: did not exhibit any decrease | activated CaMKIIγ level [4]: not observed

CN([C@@H](Cc1ccc(OS(=O)(=O)c2cccc3cnccc23)cc1)C(=O)N1CCN(c2ccccc2)CC1)S(=O)(=O)c1cccc2cnccc12 [KN-62]
KN62-mediated differentiation of ATRA-unresponsive NB4 subclones [5]: do not observe any | differentiation of KCL-22 [6]: does not induce | differentiation of Kasumi [7]: does not induce

COc1ccc(S(=O)(=O)N(CCO)c2ccccc2CN(C)C/C=C/c2ccc(Cl)cc2)cc1 [KN-93]
Stat3 responsive reporter activity [8]: inhibited | cell proliferation [9]: inhibition | cell viability or morphologic differentiation [9]: without any significant effect | cell proliferation [10]: inhibition | cell viability or morphologic differentiation [10]: without any significant effect | K562 viability [11]: did not affect | K562 cell proliferation ([11]; seeded at 5×10^4 cells/ml, cell counts): inhibited the proliferation of K562 cells in a dose dependent manner
